Reference: PubChem BioAssay (NCI)
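Protocol summary: plate cells (96-well), add compound at 5 concentrations, incubate 48 h, interpolate endpoints linearly. The concentration for full growth arrest is given as TGI.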

Tests used:
Test in all cases: inhibition of tumour cell growth, NCI panel, 48 h
[1] = system: UACC-257 melanoma
[2] = system: KM12 colon
[3] = system: A498 renal
[4] = system: EKVX NSCLC
[5] = system: M14 melanoma
[6] = system: TK-10 renal
[7] = system: SW-620 colon
[8] = system: OVCAR-8 ovarian
[9] = system: A549 NSCLC
[10] = system: SK-MEL-5 melanoma
[11] = system: NCI-H522 lung
[12] = system: OVCAR-5 ovarian
[13] = system: CAKI-1 renal
[14] = system: DU-145 prostate
[15] = system: RXF 393 renal
[16] = system: HS 578T breast
[17] = system: SNB-19 CNS
[18] = system: SF-268 CNS
[19] = system: MALME-3M melanoma
[20] = system: IGROV1 ovarian
[21] = system: OVCAR-4 ovarian
[22] = system: U251 CNS
[23] = system: RPMI-8226 leukemia
[24] = system: HCC-2998 colon
[25] = system: K-562 leukemia
[26] = system: SN12C renal
[27] = system: HT29 colon
[28] = system: HOP-62 NSCLC
[29] = system: MDA-MB-435
[30] = system: LOX IMVI melanoma
[31] = system: NCI-H23 lung
[32] = system: SF-539 CNS
[33] = system: HCT-116 colon
[34] = system: ACHN renal
[35] = system: SNB-75 CNS
[36] = system: UACC-62 melanoma
[37] = system: MDA-MB-231 breast
[38] = system: OVCAR-3 ovarian
[39] = system: SR leukemia
[40] = system: MOLT-4 leukemia
[41] = system: PC-3 prostate
[42] = system: SF-295 CNS
[43] = system: HCT-15 colon
[44] = system: HL-60(TB) leukemia
[45] = system: NCI-H460 lung
[46] = system: MDA-N
[47] = system: CCRF-CEM leukemia
[48] = system: SK-OV-3 ovarian
[49] = system: 786-0 renal
[50] = system: SK-MEL-28 melanoma
[51] = system: T-47D breast
[52] = system: COLO 205 colon
[53] = system: MCF7 breast
[54] = system: HOP-92 NSCLC
[55] = system: NCI/ADR-RES ovarian
[56] = system: NCI-H226 lung
[57] = system: UO-31 renal
[58] = system: SK-MEL-2 melanoma
[59] = system: BT-549 breast

CCOC(=O)c1sc2c(c1OC(=O)c1ccc(OC)cc1)c(=O)n(-c1ccccc1)c(=S)n2-c1ccccc1
TGI [1]: > 100 µM | TGI [2]: > 100 µM | TGI [3]: 41.4 µM | TGI [4]: > 100 µM | TGI [5]: > 100 µM | TGI [6]: > 100 µM | TGI [7]: > 100 µM | TGI [8]: > 100 µM | TGI [9]: > 100 µM | TGI [10]: > 100 µM | TGI [11]: 23 µM | TGI [12]: > 100 µM | TGI [13]: > 100 µM | TGI [14]: > 100 µM | TGI [15]: > 100 µM | TGI [16]: > 100 µM | TGI [17]: > 100 µM | TGI [18]: > 100 µM | TGI [19]: > 100 µM | TGI [20]: > 100 µM | TGI [21]: 24.6 µM | TGI [22]: > 100 µM | TGI [23]: > 100 µM | TGI [24]: 38 µM | TGI [25]: > 100 µM | TGI [26]: > 100 µM | TGI [27]: > 100 µM | TGI [28]: > 100 µM | TGI [29]: > 100 µM | TGI [30]: > 100 µM | TGI [31]: > 100 µM | TGI [32]: > 100 µM | TGI [33]: > 100 µM | TGI [34]: > 100 µM | TGI [35]: > 100 µM | TGI [36]: > 100 µM | TGI [37]: 54.2 µM | TGI [38]: > 100 µM | TGI [39]: 93.2 µM | TGI [40]: > 100 µM | TGI [41]: > 100 µM | TGI [42]: > 100 µM | TGI [43]: > 100 µM | TGI [44]: > 100 µM | TGI [45]: > 100 µM | TGI [46]: > 100 µM | TGI [47]: > 100 µM | TGI [48]: > 100 µM | TGI [49]: > 100 µM | TGI [50]: > 100 µM | TGI [51]: > 100 µM | TGI [52]: > 100 µM | TGI [53]: > 100 µM | TGI [54]: 63.4 µM | TGI [55]: 72.2 µM | TGI [56]: 73 µM

Cc1nc2ccc(F)cc2c2c1CCN2c1ccc(Cl)cc1
TGI [1]: 13.8 µM | TGI [3]: 73.1 µM | TGI [5]: 21.4 µM | TGI [6]: 41.7 µM | TGI [7]: 54.8 µM | TGI [8]: 34.2 µM | TGI [9]: > 100 µM | TGI [10]: 12.3 µM | TGI [11]: 30.5 µM | TGI [12]: > 100 µM | TGI [13]: 79.6 µM | TGI [14]: > 100 µM | TGI [15]: 55.7 µM | TGI [16]: 79.5 µM | TGI [17]: > 100 µM | TGI [18]: > 100 µM | TGI [19]: 26.9 µM | TGI [20]: 40 µM | TGI [21]: > 100 µM | TGI [22]: 71.8 µM | TGI [24]: 29.4 µM | TGI [57]: 78.3 µM | TGI [25]: 13.4 µM | TGI [26]: 97.6 µM | TGI [27]: 22.4 µM | TGI [28]: 56.4 µM | TGI [29]: 33.5 µM | TGI [30]: 33 µM | TGI [31]: 48.2 µM | TGI [32]: 24.3 µM | TGI [33]: 36.2 µM | TGI [34]: 96.2 µM | TGI [35]: > 100 µM | TGI [36]: 39.1 µM | TGI [37]: 30.6 µM | TGI [38]: > 100 µM | TGI [41]: 22.7 µM | TGI [42]: > 100 µM | TGI [43]: > 100 µM | TGI [44]: 17.7 µM | TGI [45]: 47.7 µM | TGI [58]: 41.4 µM | TGI [46]: 21.7 µM | TGI [47]: 31 µM | TGI [48]: > 100 µM | TGI [49]: 34.9 µM | TGI [50]: 28 µM | TGI [52]: 20.6 µM | TGI [53]: 26.4 µM | TGI [55]: 19.8 µM | TGI [56]: 72.2 µM | TGI [59]: 67.2 µM
